According to patent US9758527B2, “Cyclohexene derivative, preparation method therefor, and pharmaceutical composition for preventing or treating metabolic diseases, containing same as active ingredient” (HYUNDAI PHARM CO., LTD., priority 2014, dated 2017):

target: T1, G protein-coupled receptor 119 (GPR-119) (Mesocricetus auratus, UniProt A0A1U8CD06); test: Evaluation of cAMP activity in HIT-T15 cells (HTRF cAMP dynamic kit); assay type: cell-based, hamster; conditions: cAMP activation, 1 h at 37° C., six concentrations, read-out: EC50
T1 construct: hamster-derived β-cells containing G protein-coupled receptor 119 (GPR-119), HIT-T15 cells; host or cells: HIT-T15 (hamster pancreatic β-cells)
T1 sequence (A0A1U8CD06 1-334): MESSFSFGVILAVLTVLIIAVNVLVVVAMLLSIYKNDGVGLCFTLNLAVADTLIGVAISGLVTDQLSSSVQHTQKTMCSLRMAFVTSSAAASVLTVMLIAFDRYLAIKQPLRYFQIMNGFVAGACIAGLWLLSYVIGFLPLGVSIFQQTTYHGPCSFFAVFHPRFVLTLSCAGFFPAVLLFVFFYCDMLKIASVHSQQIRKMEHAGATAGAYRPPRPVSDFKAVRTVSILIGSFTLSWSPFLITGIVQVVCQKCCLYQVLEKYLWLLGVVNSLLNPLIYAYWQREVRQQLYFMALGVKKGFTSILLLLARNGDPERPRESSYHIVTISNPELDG
Protocol: To check whether the cyclohexene derivatives according to the present invention activate cyclic adenosine monophosphate (cAMP), experiments were carried out, as follows.
The HIT-T15 cells were plated on a 96-well plate at 60,000 cells per well. On the next day of plating, the cells were treated with a varying concentration of each of the example compounds according to the present invention, and incubated at 37° C. for an hour. In this case, each of the treated compounds was used at six concentrations, ranging from […], to treat the cells.
The cyclic adenosine monophosphate (cAMP) activity was measured according to the manufacturer's instruction using a cAMP dynamic kit commercially available from Cis Bio Inc. (Bedford, Mass.). The cells were lysed, and a level of cAMP was determined by a competitive immunoassay using D2-labeled cAMP and a cryptate-labeled anti-cAMP antibody. Fluorescence was read in Flex Station (Molecular Devices). […] Unlabeled cAMP in the cell lysate competed with the D2-labeled cAMP against the cryptate-labeled antibody. Since a decrease in the measured intensity of the FRET signals represents a level of cAMP in the cells, the cAMP activities of the compounds are calculated as a change in FRET signals by adjusting an amount of dimethyl sulfoxide (DMSO).

EC50	SMILES
13 nM	CCc1cnc(N2CCC(COc3ccc(C4=CCC(C(=O)N5CC[C@@H](O)C5)CC4)cc3)CC2)nc1 (stereo partly drawn) [Example 16, (4-(4-((1-(5-ethylpyrimidin-2-yl)piperidin-4-yl)methoxy)phenyl)cyclohex-3-enyl)((R)-3-hydroxypyrrolidin-1-yl)methanone]
85 nM	CC(C)c1noc(N2CCC(COc3ccc(C4=CCC(C(=O)NC[C@@H](O)CO)CC4)cc3)CC2)n1 (stereo partly drawn) [Example 17, N-((R)-2,3-dihydroxypropyl)-4-(4-((1-(3-isopropyl-1,2,4-oxadiazol-5-yl)piperidin-4-yl)methoxy)phenyl)cyclohex-3-enecarboxamide]
170 nM	CC(C)c1noc(N2CCC(COc3ccc(C4=CCC(C(=O)NC[C@H](O)CO)CC4)cc3)CC2)n1 (stereo partly drawn) [Example 18, N-((S)-2,3-dihydroxypropyl)-4-(4-((1-(3-isopropyl-1,2,4-oxadiazol-5-yl)piperidin-4-yl)methoxy)phenyl)cyclohex-3-enecarboxamide]
110 nM	CC(C)c1noc(N2CCC(COc3ccc(C4=CCC(C(=O)N[C@@H](C)CO)CC4)cc3)CC2)n1 (stereo partly drawn) [Example 19, N-((S)-1-hydroxypropan-2-yl)-4-(4-((1-(3-isopropyl-1,2,4-oxadiazol-5-yl)piperidin-4-yl)methoxy)phenyl)cyclohex-3-enecarboxamide]
90 nM	CC(C)c1noc(N2CCC(COc3ccc(C4=CCC(C(=O)N[C@H](C)CO)CC4)cc3)CC2)n1 (stereo partly drawn) [Example 20, N-((R)-1-hydroxypropan-2-yl)-4-(4-((1-(3-isopropyl-1,2,4-oxadiazol-5-yl)piperidin-4-yl)methoxy)phenyl)cyclohex-3-enecarboxamide]
16 nM	CCc1cnc(N2CCC(COc3ccc(C4=CCC(C(=O)N(C)CCO)CC4)cc3)CC2)nc1 (stereo not shown) [Example 21, 4-(4-((1-(5-ethylpyrimidin-2-yl)piperidin-4-yl)methoxy)phenyl)-N-(2-hydroxyethyl)-N-methylcyclohex-3-enecarboxamide]
41 nM	CC(C)c1noc(N2CCC(COc3ccc(C4=CCC(C(=O)NCC(C)(C)CO)CC4)cc3)CC2)n1 (stereo not shown) [Example 22, N-(3-hydroxy-2,2-dimethylpropyl)-4-(4-((1-(3-isopropyl-1,2,4-oxadiazol-5-yl)piperidin-4-yl)methoxy)phenyl)cyclohex-3-enecarboxamide]
160 nM	CC(C)c1noc(N2CCC(COc3ccc(C4=CCC(C(=O)NC(CO)CO)CC4)cc3)CC2)n1 (stereo not shown) [Example 23, N-(1,3-dihydroxypropan-2-yl)-4-(4-((1-(3-isopropyl-1,2,4-oxadiazol-5-yl)piperidin-4-yl)methoxy)phenyl)cyclohex-3-enecarboxamide]
260 nM	C[C@@H](CO)NC(=O)C1CC=C(c2ccc(OCC3CCN(C(=O)OC(C)(C)C)CC3)nc2)CC1 (stereo partly drawn) [Example 24, tert-butyl 4-((5-(4-((S)-1-hydroxypropan-2-ylcarbamoyl)cyclohex-1-enyl)pyridin-2-yloxy)methyl)piperidine-1-carboxylate]
210 nM	C[C@H](CO)NC(=O)C1CC=C(c2ccc(OCC3CCN(C(=O)OC(C)(C)C)CC3)nc2)CC1 (stereo partly drawn) [Example 25, tert-butyl 4-((5-(4-((R)-1-hydroxypropan-2-ylcarbamoyl)cyclohex-1-enyl)pyridin-2-yloxy)methyl)piperidine-1-carboxylate]
250 nM	C[C@H](O)CNC(=O)C1CC=C(c2ccc(OCC3CCN(C(=O)OC(C)(C)C)CC3)nc2)CC1 (stereo partly drawn) [Example 26, tert-butyl 4-((5-(4-((S)-2-hydroxypropylcarbamoyl)cyclohex-1-enyl)pyridin-2-yloxy)methyl)piperidine-1-carboxylate]
310 nM	C[C@@H](O)CNC(=O)C1CC=C(c2ccc(OCC3CCN(C(=O)OC(C)(C)C)CC3)nc2)CC1 (stereo partly drawn) [Example 27, tert-butyl 4-((5-(4-((R)-2-hydroxypropylcarbamoyl)cyclohex-1-enyl)pyridin-2-yloxy)methyl)piperidine-1-carboxylate]
110 nM	CC(C)c1noc(N2CCC(COc3ccc(C4=CCC(C(=O)NC[C@@H](C)O)CC4)cc3)CC2)n1 (stereo partly drawn) [Example 28, N-((R)-2-hydroxypropyl)-4-(4-((1-(3-isopropyl-1,2,4-oxadiazol-5-yl)piperidin-4-yl)methoxy)phenyl)cyclohex-3-enecarboxamide]
95 nM	CC(C)c1noc(N2CCC(COc3ccc(C4=CCC(C(=O)NC[C@H](C)O)CC4)cc3)CC2)n1 (stereo partly drawn) [Example 29, N-((S)-2-hydroxypropyl)-4-(4-((1-(3-isopropyl-1,2,4-oxadiazol-5-yl)piperidin-4-yl)methoxy)phenyl)cyclohex-3-enecarboxamide]
105 nM	CCc1cnc(N2CCC(COc3ccc(C4=CCC(C(=O)NC[C@@H](C)O)CC4)cc3)CC2)nc1 (stereo partly drawn) [Example 30, 4-(4-((1-(5-ethylpyrimidin-2-yl)piperidin-4-yl)methoxy)phenyl)-N-((R)-2-hydroxypropyl)cyclohex-3-enecarboxamide]
260 nM	CC(C)c1noc(N2CCC(COc3ccc(C4=CCC(C(=O)NCCO)CC4)cc3)CC2)n1 (stereo not shown) [Example 31, N-(2-hydroxyethyl)-4-(4-((1-(3-isopropyl-1,2,4-oxadiazol-5-yl)piperidin-4-yl)methoxy)phenyl)cyclohex-3-enecarboxamide]
650 nM	CC(C)(C)OC(=O)N1CCC(COc2ccc(C3=CCC(C(=O)NC[C@@H](O)CO)CC3)cn2)CC1 (stereo partly drawn) [Example 32, tert-butyl 4-((5-(4-((R)-2,3-dihydroxypropylcarbamoyl)cyclohex-1-enyl)pyridin-2-yloxy)methyl)piperidine-1-carboxylate]
600 nM	CC(C)(C)OC(=O)N1CCC(COc2ccc(C3=CCC(C(=O)NC[C@H](O)CO)CC3)cn2)CC1 (stereo partly drawn) [Example 33, tert-butyl 4-((5-(4-((S)-2,3-dihydroxypropylcarbamoyl)cyclohex-1-enyl)pyridin-2-yloxy)methyl)piperidine-1-carboxylate]
21 nM	CC(C)c1noc(N2CCC(COc3ccc(C4=CCC(C(=O)N(C)CCO)CC4)cc3)CC2)n1 (stereo not shown) [Example 34, N-(2-hydroxyethyl)-4-(4-((1-(3-isopropyl-1,2,4-oxadiazol-5-yl)piperidin-4-yl)methoxy)phenyl)-N-methylcyclohex-3-enecarboxamide]
22 nM	CCN(CCO)C(=O)C1CC=C(c2ccc(OCC3CCN(c4nc(C(C)C)no4)CC3)cc2)CC1 (stereo not shown) [Example 35, N-ethyl-N-(2-hydroxyethyl)-4-(4-((1-(3-isopropyl-1,2,4-oxadiazol-5-yl)piperidin-4-yl)methoxy)phenyl)cyclohex-3-enecarboxamide]
170 nM	CC(C)c1noc(N2CCC(COc3ccc(C4=CCC(C(=O)N[C@H](C)CO)CC4)nc3)CC2)n1 (stereo partly drawn) [Example 36, N-((R)-1-hydroxypropan-2-yl)-4-(5-((1-(3-isopropyl-1,2,4-oxadiazol-5-yl)piperidin-4-yl)methoxy)pyridin-2-yl)cyclohex-3-enecarboxamide]
300 nM	CC(C)c1noc(N2CCC(COc3ccc(C4=CCC(C(=O)N[C@@H](C)CO)CC4)nc3)CC2)n1 (stereo partly drawn) [Example 37, N-((S)-1-hydroxypropan-2-yl)-4-(5-((1-(3-isopropyl-1,2,4-oxadiazol-5-yl)piperidin-4-yl)methoxy)pyridin-2-yl)cyclohex-3-enecarboxamide]
450 nM	CC(C)c1noc(N2CCC(COc3ccc(C4=CCC(C(=O)NC[C@@H](C)O)CC4)nc3)CC2)n1 (stereo partly drawn) [Example 38, N-((R)-2-hydroxypropyl)-4-(5-((1-(3-isopropyl-1,2,4-oxadiazol-5-yl)piperidin-4-yl)methoxy)pyridin-2-yl)cyclohex-3-enecarboxamide]
350 nM	CC(C)c1noc(N2CCC(COc3ccc(C4=CCC(C(=O)NC[C@H](C)O)CC4)nc3)CC2)n1 (stereo partly drawn) [Example 39, N-((S)-2-hydroxypropyl)-4-(5-((1-(3-isopropyl-1,2,4-oxadiazol-5-yl)piperidin-4-yl)methoxy)pyridin-2-yl)cyclohex-3-enecarboxamide]
500 nM	CC(C)c1noc(N2CCC(COc3ccc(C4=CCC(C(=O)NC[C@@H](O)CO)CC4)nc3)CC2)n1 (stereo partly drawn) [Example 40, N-((R)-2,3-dihydroxypropyl)-4-(5-((1-(3-isopropyl-1,2,4-oxadiazol-5-yl)piperidin-4-yl)methoxy)pyridin-2-yl)cyclohex-3-enecarboxamide]
650 nM	CC(C)c1noc(N2CCC(COc3ccc(C4=CCC(C(=O)NC[C@H](O)CO)CC4)nc3)CC2)n1 (stereo partly drawn) [Example 41, N-((S)-2,3-dihydroxypropyl)-4-(5-((1-(3-isopropyl-1,2,4-oxadiazol-5-yl)piperidin-4-yl)methoxy)pyridin-2-yl)cyclohex-3-enecarboxamide]

same assay, conditions: cAMP activation, read-out: EC50 value

EC50	SMILES
≤ 50 nM	CCc1cnc(N2CCC(COc3ccc(C4=CCC(C(=O)N5CC[C@@H](O)C5)CC4)cc3)CC2)nc1 (stereo partly drawn) [Example 16, (4-(4-((1-(5-ethylpyrimidin-2-yl)piperidin-4-yl)methoxy)phenyl)cyclohex-3-enyl)((R)-3-hydroxypyrrolidin-1-yl)methanone]
≤ 50 nM	CCc1cnc(N2CCC(COc3ccc(C4=CCC(C(=O)N(C)CCO)CC4)cc3)CC2)nc1 (stereo not shown) [Example 21, 4-(4-((1-(5-ethylpyrimidin-2-yl)piperidin-4-yl)methoxy)phenyl)-N-(2-hydroxyethyl)-N-methylcyclohex-3-enecarboxamide]
≤ 50 nM	CC(C)c1noc(N2CCC(COc3ccc(C4=CCC(C(=O)NCC(C)(C)CO)CC4)cc3)CC2)n1 (stereo not shown) [Example 22, N-(3-hydroxy-2,2-dimethylpropyl)-4-(4-((1-(3-isopropyl-1,2,4-oxadiazol-5-yl)piperidin-4-yl)methoxy)phenyl)cyclohex-3-enecarboxamide]
≤ 50 nM	CC(C)c1noc(N2CCC(COc3ccc(C4=CCC(C(=O)N(C)CCO)CC4)cc3)CC2)n1 (stereo not shown) [Example 34, N-(2-hydroxyethyl)-4-(4-((1-(3-isopropyl-1,2,4-oxadiazol-5-yl)piperidin-4-yl)methoxy)phenyl)-N-methylcyclohex-3-enecarboxamide]
≤ 50 nM	CCN(CCO)C(=O)C1CC=C(c2ccc(OCC3CCN(c4nc(C(C)C)no4)CC3)cc2)CC1 (stereo not shown) [Example 35, N-ethyl-N-(2-hydroxyethyl)-4-(4-((1-(3-isopropyl-1,2,4-oxadiazol-5-yl)piperidin-4-yl)methoxy)phenyl)cyclohex-3-enecarboxamide]
